# Columns and labels:
# [1] = tested on: MDA-MB-435 breast cancer cells; assay: Pharmacodynamic experiment, MDA-MB-435 xenograft; type: in vivo, mouse
# Protocol: MDA-MB-435 breast cancer cells were obtained from Shanghai Cell Bank of Chinese Academy of Sciences. Cryopreserved cells were thawed in a 37° C. water bath and then placed in RPMI 1640 medium supplemented with 10% fetal bovine serum (FBS), 1% insulin (Bioman Biotech, Shanghai) and incubated in 5% CO2 of Tissue Culture Incubator. […] The sign of successful transplantation was the formation of a round bulging lump under the skin. Tumor size can be measured approximately two weeks after implantation. The tumor size was measured by a caliper.
# CDK2 = molecular target: T1, CDK2 (Homo sapiens, UniProt P24941); assay: CDK2 activity inhibition experiment (Caliper mobility shift assay); type: biochemical; conditions: enzyme activity inhibition; read-out: CDK2 IC50 class
# T1 construct: purchased Carna 04-103
# Protocol: After being incubated at 28° C. for 60 minutes, 25 μl of stop solution was added to stop the reaction. Conversion rate data was read from Caliper EZ Reader II (Caliper Life Sciences). The conversion rate data was converted into inhibition rate data. […] The curve was plotted with compound concentration and inhibition rate as horizontal and vertical coordinates, and the IC50 was calculated by fitting the curve using XLFit excel add-in version 4.3.1 software. Inhibition rate %=(max-conversion rate)/(max-min)×100.
# MDA-MB-231 = assay: Tumor cell proliferation inhibition (CellTiter-Glo), MDA-MB-231; type: cell-based; conditions: Homo sapiens, 72 hours, 10% fetal bovine serum, read-out: MDA-MB-231 IC50 class
# Protocol: (§1) The content of adenosine triphosphate (ATP) was determined using the CellTiter-Glo Luminescent Cell Viability Assay Kit (Promega, Madison, Wis.) to evaluate cell viability. Tumor cell lines (SW620, ZR-75-1, MDA-MB-231) were purchased from the Cell Resource Center of IBS, Fudan University, Shanghai and the American Type Culture Collection (ATCC). The cell density was determined using Scepter automated cell counter (Millipore # PHCC00000) after the cells were digested with pancreatin in cell culture dishes and resuspended in DPBS medium. The cells were diluted to a solution of 44,000 cells per ml. The cell solution of which density was adjusted was added into the cell assay plate at 90 microliters per well. The well plate was incubated in an incubator with 5% CO2 at 37° C. for 24 hours and then added with test compounds with different concentrations. The cells were incubated with the compounds in the presence of 10% fetal bovine serum for 72 hours. ATP content was assayed using the CellTiter-Glo® Luminescent Cell Viability Assay kit (see instructions of manufacturer) to assess cell growth inhibition. Briefly, 30 μl of CellTiter-Glo® reagent was added to each well, rocked for 10 minutes to induce cell lysis, and […] were detected and recorded with Fluoroskan Ascent FL (Thermo). The maximum signal value was obtained from the cells treated with dimethyl sulfoxide for 72 hours. The minimum signal value was obtained from the separate culture medium (cell number was zero). Inhibition rate %=(maximum signal value−compound signal value)/(maximum signal value−minimum signal value)×100. Data was processed using GraphPad Prism V5.0 (GraphPad Software, San Diego, Calif.) software. IC50 values were calculated by fitting S-shaped dose-response curves.
# SW620 = assay: Tumor cell proliferation inhibition (CellTiter-Glo), SW620; type: cell-based; conditions: Homo sapiens, SW-620; 72 hours, 10% fetal bovine serum; read-out: SW620 IC50 class
# Protocol: as §1
# [2] = molecular target: T2, CDK4 (GST-CDK4(1-303end)/GST-CycD3(1-292end)) (Homo sapiens, UniProt P11802); assay: CDK4 activity inhibition experiment (Caliper mobility shift assay); type: biochemical; conditions: enzyme activity inhibition; read-out: CDK4 IC50 class
# T2 construct: GST-CDK4(1-303end); purchased Carna 04-105
# T2 sequence (P11802 whole entry): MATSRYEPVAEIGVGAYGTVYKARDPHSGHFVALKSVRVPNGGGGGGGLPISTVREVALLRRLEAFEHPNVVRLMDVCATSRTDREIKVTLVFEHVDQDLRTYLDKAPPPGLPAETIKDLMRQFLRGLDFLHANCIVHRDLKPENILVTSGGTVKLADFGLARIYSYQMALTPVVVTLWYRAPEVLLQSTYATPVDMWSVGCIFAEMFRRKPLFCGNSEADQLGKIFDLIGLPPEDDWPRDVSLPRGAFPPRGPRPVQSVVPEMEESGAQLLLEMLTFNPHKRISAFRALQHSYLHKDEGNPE
# T2 sequence (P30281 whole entry partner): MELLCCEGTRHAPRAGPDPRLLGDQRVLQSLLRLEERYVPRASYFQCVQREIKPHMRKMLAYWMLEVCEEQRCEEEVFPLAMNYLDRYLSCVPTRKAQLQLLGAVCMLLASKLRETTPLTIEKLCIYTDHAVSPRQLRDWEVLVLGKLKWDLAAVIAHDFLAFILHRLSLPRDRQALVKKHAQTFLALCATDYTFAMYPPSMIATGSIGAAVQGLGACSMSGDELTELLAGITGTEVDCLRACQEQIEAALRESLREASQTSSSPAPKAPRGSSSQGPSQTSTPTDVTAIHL
compound,measurement,setting,value
"CC(=O)c1c(C)c2cnc(Nc3ccc(C4CCN(CCS(C)(=O)=O)CC4)cn3)nc2n(C2CCCC2)c1=O [Compound 1, 6-acetyl-8-cyclopentyl-5-methyl-2-((5-(1-(2-(methylsulfonyl)ethyl)piperidin-4-yl)pyridin-2-yl)amino)pyrido[2,3-d]pyrimidin-7(8H)-one]",T/C value,"[1]; after 14 days of oral administration, PD-0332991 150 then 100 mg/kg once daily, Compound 1 75 mg/kg twice daily",25%
same,T/C value,[1]; day 6 after discontinuation (D20),32%
same,IC50,CDK2,> 0.5 µM
same,IC50,MDA-MB-231,0.1 to 0.5 µM
same,IC50,SW620,0.1 to 0.5 µM
same,IC50,[2],< 0.01 µM

# Source: US10183941B2, “Pyrimidine or pyridopyridone compound and application thereof” (GUANGZHOU BEBETTER MEDICINE TECHNOLOGY CO., LTD., priority 2015, dated 2019)
